These results are taken from US20030138864A1, “Method for identifying an enzyme to design anti-cancer compounds” (priority 2001, published 2003).

pIC50: −log10 of the molar value. Counter-ions that a name gives are not always drawn. Like-named read-outs stand apart in the source and are kept apart here. A value given as a limit tells only on which side of the number the result lay.

Type in all cases: cell-based
Series [1] has as its system HCT116: human colon cancer cell line. Briefly: Growth inhibition (cytotoxicity, WST-8) of HCT116 cells expressing only a low level of microsomal dipeptidase. The conditions noted are these: for IC50: drug exposure time, read-out: Cytotoxicity (IC50 in nM) HCT116. How it is done:
The activation of the compounds is mediated by microsomal dipeptidase. The inhibitory activities of the compounds is determined against growth of the cells expressing a low level of microsomal dipeptidase, those expressing a high level of microsomal dipeptidase, and granulocyte progenitors that are expanded ex vivo. […] A stable transfectant, HCT116/S5, into which the human microsomal dipeptidase cDNA (herafter called MDP) connected to the CMV promoter was transfected, is used as the cells expressing a high level of microsomal dipeptidase. […] HCT116, HCT116/S5, and granulocyte porogenitors are cultured in the absence and presence of the drugs. […] The IC50 values are determined and compared among HCT116, HCT116/S5, and granulocyte porogenitors.
Transfection of the DNA was carried out by using TransIT-LT2 (PanVera, Madison, USA, Calatog No. MIR2320) according to the manufacturer's instruction. […] The cells that grew in the presence of 1 mg/ml G418 were collected and cultivated in MaCoy5A medium.
By using 96-multi well plates, approximately 2×10^3 cells per well of the HCT116 bearing pRC/CMV and HCT116S5 carrying pRC/CMV-MDP were cultured in 200 μl of McCoy5A medium supplemented with 10% FBS in the presence or absence of the indicated concentrations of the drugs at 37° C. under 5% CO2 in humidified air. The cells were exposed to drugs for 24 hr (taxol, camptothecins and their prodrugs) or 96 hr (DMDC and its compounds). When the drug exposure time to the cells was 24 hr, culture medium containing drugs were removed, and the cells were washed and suspended in the fresh medium without drugs and further cultured at 37° C. under 5% CO2 in humidified air for the indicated days. […] To examine the effects of drugs on granulocyte progenitors, the granulocyte progenitors, which were expanded on a monolayer of MS-5 for 7 days, were collected and washed with RPMI1640 medium. Approximately 5000 cells were suspended in 200 μl of RPMI medium supplemented with 10% FBS and 50 ng/ml of G-CSF in the presence or absence of drugs and cultured in the presence of drugs for 24 hr (taxol, camptothecins and their prodrugs) or 7 days (DMDC and its prodrug) at 37° C. under 5% CO2 in humidified air. When the exposure time of drugs to the cells was 24 hr, the drugs were removed at 24 hr after addition of drugs by washing the cells with the above medium, and the cells were further cultured for 6 days in the same medium without drugs.

Series [2] deals with HCT116/S5: HCT116 transfected with the human microsomal dipeptidase cDNA. The series can be described thus: Growth inhibition (cytotoxicity, WST-8) of HCT116/S5 cells expressing a high level of microsomal dipeptidase. Particulars: for IC50: drug exposure time, read-out: Cytotoxicity (IC50 in nM) HCT116/S5. The protocol: (§1) The activation of the compounds is mediated by microsomal dipeptidase. The inhibitory activities of the compounds is determined against growth of the cells expressing a low level of microsomal dipeptidase, those expressing a high level of microsomal dipeptidase, and granulocyte progenitors that are expanded ex vivo. The human colon cancer cell line, HCT116 (American Type Culture Collection No. CCL-247), and granulocyte progenitors are used as the cells expressing only a low level of microsomal dipeptidase. A stable transfectant, HCT116/S5, into which the human microsomal dipeptidase cDNA (herafter called MDP) connected to the CMV promoter was transfected, is used as the cells expressing a high level of microsomal dipeptidase. The dipeptidase cDNA (Satoh et al. Biotechnol. Prog. 10 (2), 134-140 (1994)) and other references) and the cloning procedures as mentioned are known in the art. HCT116, HCT116/S5, and granulocyte porogenitors are cultured in the absence and presence of the drugs. […] The IC50 values are determined and compared among HCT116, HCT116/S5, and granulocyte porogenitors. Although time duration of the exposure of the cells to the drugs varies depending on the cells and drugs, it can be 24 hr, 96 or 168 hr.
Transfection of the DNA was carried out by using TransIT-LT2 (PanVera, Madison, USA, Calatog No. MIR2320) according to the manufacturer's instruction. The resulting transfectants were cultivated in MaCoy5A medium (Sigma, St Louis, USA, Catalog No. M8403) supplemented with 10% (v/v) fetal bovine serum and 1 mg/ml of geneticin disulfate (Wako, Osaka, Japan, Catalog No. 535-24624). The cells that grew in the presence of 1 mg/ml G418 were collected and cultivated in MaCoy5A medium.
By using 96-multi well plates, approximately 2×10^3 cells per well of the HCT116 bearing pRC/CMV and HCT116S5 carrying pRC/CMV-MDP were cultured in 200 μl of McCoy5A medium supplemented with 10% FBS in the presence or absence of the indicated concentrations of the drugs at 37° C. under 5% CO2 in humidified air. The cells were exposed to drugs for 24 hr (taxol, camptothecins and their prodrugs) or 96 hr (DMDC and its compounds). When the drug exposure time to the cells was 24 hr, culture medium containing drugs were removed, and the cells were washed and suspended in the fresh medium without drugs and further cultured at 37° C. under 5% CO2 in humidified air for the indicated days. Then, 10 μl of WST-8 (Cell Counting Kit-8, Wako, Osaka, Japan, Catalog No.343-07623) were added to the cultures, and the cells were further incubated at 37° C. for 1 or 2 hr. Cell growth inhibition was calculated as IC50 values according to optical densities at 450 nm and at 655 nm. To examine the effects of drugs on granulocyte progenitors, the granulocyte progenitors, which were expanded on a monolayer of MS-5 for 7 days, were collected and washed with RPMI1640 medium. Approximately 5000 cells were suspended in 200 μl of RPMI medium supplemented with 10% FBS and 50 ng/ml of G-CSF in the presence or absence of drugs and cultured in the presence of drugs for 24 hr (taxol, camptothecins and their prodrugs) or 7 days (DMDC and its prodrug) at 37° C. under 5% CO2 in humidified air. When the exposure time of drugs to the cells was 24 hr, the drugs were removed at 24 hr after addition of drugs by washing the cells with the above medium, and the cells were further cultured for 6 days in the same medium without drugs. Therafter, 20 μl of WST-1 (Roche Diagnostics, Mannheim, Germany, Catalog No. 1644807) were added to the cultures, and the cells were further incubated at 37° C. for 6 hr. Cell growth inhibition was calculated as IC50 values according to optical densities at 450 nm and at 655 nm.
Background: Formazan colour is commonly taken as a measure of viable cells.

In series [3] the test system is CFU-GM: human bematopoietic progenitor cells. Briefly: Growth inhibition (cytotoxicity, WST-1) of granulocyte progenitors expanded ex vivo (CFU-GM). The conditions noted are these: for IC50: drug exposure time, read-out: Cytotoxicity (IC50 in nM) CFU-GM. The protocol: as §1
CD34-positive mononuclear cells derived from the human umbilical cord blood and bone marrow (Veritas Co, Tokyo, Japan, Catalog No.CB009F, ABM019F) were cultured on a confluent monolayer of MS5 (Itoh, K., et al. Reproducible establishment of hematopoietic supportive stromal cells from murine bone marrow. Exp. Hematol. 17, 145-153 (1989)). Mouse stromal cell lines in alpha MEM medium (Life Technologies, Gaithersburg, USA, Catalog No.12571-0063) supplemented with 10% (v/v) horse serum (HS) (Stem Cell Technologies, Vancouver, Canada, Catalog No. 06750), 10% (v/v) fetal bovine serum (FBS) (Stem Cell Technologies, Vancouver, Canada, Catalog No.06450), 50 ng/ml Flt3 ligand (PeproTec EC., London, UK., Catalog No. 300-19), 100 ng/ml SCF (PeproTech EC, London, UK., Catalog No. 300-07), and 50 ng/ml TPO (PeproTech EC, London, England, Catalog No. 300-18) at 37° C. under 5% CO2 in humidified air. Floating hematopoietic cells were collected and stained by monoclonal antibodies against PerCP-anti-CD34 (BD pharMingen, San Diego, USA, Catalog No.340430), PE-anti-CD13 (BD pharMingen, San Diego, USA, Catalog No. 30525X) and FlTC-anti-15(BD pharMingen, SanDiego, USA, Catalog No. PM30525X). Five microlitter of each antibody was added to a […] of cell suspension and incubated at 4° C. for 25 min. After washing with PBS containing 10% (v/v) FCS, the expression of CD antigens were detected by using FACSCalibur (Becton Dickinson, Franklin Lakes, N.J., USA) according to the FACSCalibur Traing mannual (FACStation ver1.1. Becton Dickinson, Franklin Lakes, N.J., USA.). […]

Setting [4] is: 24 hr, then drug removed and cells cultured further.
[5] abbreviates: 24 hr, then cultured for 6 days without drugs.

For the molecule `CCCCCN1C=Nc2cccc3nc4c(c1c23)Cn1c-4cc2c(c1=O)COC(=O)[C@@]2(CC)OC(=O)CC[C@@H](NC(=O)[C@@H](N)CC(C)C)C(=O)O` [Example 49-4, (9S)-9-ethyl-9-[(L)-leucyl-(D)-γ-glutamyloxy]-1-pentyl-1H,12H-pyrano[3″,4″:6′,7′]-indolizino[1′,2′:6,5]pyrido[4,3,2-de]quinazoline-10,13(9H,15H)-dione hydrochloride], the IC50 was found to be 15 nM in series [1] (setting [4]) and 2.1 nM in series [2] (setting [4]).
`CCCCCN1C=Nc2c3c(nc4cccc1c24)-c1cc2c(c(=O)n1C3)COC(=O)[C@@]2(CC)OC(=O)C[C@@H](NC(=O)[C@@H](N)CC1CCCCC1)C(=O)O` [Example 49-11, (9S)-9-ethyl-9-[(L)-cyclohexylalanyl-(D)-β-aspartyloxy]-1-pentyl-1H,12H-pyrano[3″,4″:6′,7′]indolizino[1′,2′:6,5]pyrido[4,3,2-de]quinazoline-10,13(9H,15H)-dione hydrochloride]: the IC50 was 120 nM in series [3] (setting [5]), above 50 nM in series [1] (setting [4]) and 13 nM in series [2] (setting [4]).
For the molecule `CCCCCN1C=Nc2c3c(nc4cccc1c24)-c1cc2c(c(=O)n1C3)COC(=O)[C@@]2(CC)OC(=O)CC[C@@H](NC(=O)[C@@H](N)CC1CCCCC1)C(=O)O` [Example 49-2, (9S)-9-ethyl-9-[(L)-cyclohexylalanyl-(D)-γ-glutamyloxy]-1-pentyl-1H,12H-pyrano[3″,4″:6′,7′]indolizino[1′,2′:6,5]pyrido[4,3,2-de]quinazoline-10,13(9H,15H)-dione hydrochloride], the IC50 in series [3] (setting [5]) amounted to 31 nM; in series [1] (setting [4]), 18 nM; in series [2] (setting [4]), 2.6 nM.
As for `CCCCCN1C=Nc2cccc3nc4c(c1c23)Cn1c-4cc2c(c1=O)COC(=O)[C@@]2(CC)OC(=O)CC[C@@H](NC(=O)[C@@H](N)Cc1ccccc1)C(=O)O` [Example 49-3, (9S)-9-ethyl-9-[(L)-phenylalanyl-(D)-γ-glutamyloxy]-1-pentyl-1H,12H-pyrano[3″,4″:6′,7′]-indolizino[1′,2′:6,5]pyrido[4,3,2-de]quinazoline-10,13(9H,15H)-dione hydrochloride], the IC50 in series [3] (setting [5]) was 250 nM; in series [1] (setting [4]), above 50 nM; in series [2] (setting [4]), 2.9 nM.
Turning to `C=C1C(n2ccc(NC(=O)CC[C@@H](NC(=O)[C@@H](N)Cc3ccc(-c4ccccc4)cc3)C(=O)O)nc2=O)O[C@H](CO)[C@H]1O` (stereo partly shown) [Example 16], the IC50 in series [3] (168 hr (7 days)) is 2.8 nM; in series [1] (96 hr), 1.7 nM; in series [2] (96 hr), 0.23 nM.
Take `CCc1c2c(nc3ccc(O)cc13)-c1cc3c(c(=O)n1C2)COC(=O)[C@]3(O)CC` [SN 38, reference compound]: the figures for the IC50 in series [3] (setting [5]), in series [1] (setting [4]) and in series [2] (setting [4]) were 1.8 nM, 3.7 nM and 2.2 nM, respectively.
The matching figures for `CCCCCN1C=Nc2cccc3nc4c(c1c23)Cn1c-4cc2c(c1=O)COC(=O)[C@@]2(CC)OC(=O)CC[C@H](NC(=O)[C@@H](N)Cc1c[nH]c2ccccc12)C(=O)O` [Example 49-1, (9S)-9-ethyl-9-[(L)-tryptophyl-(L)-γ-glutamyloxy]-1-pentyl-1H,12H-pyrano[3″,4″:6′,7′]indolizino[1′,2′:6,5]pyrido[4,3,2-de]quinazoline-10,13(9H,15H)-dione hydrochloride]: 61 nM, 33 nM and 3.3 nM.
By pIC50 is commonly meant the IC50 on a negative log10 scale, so that one unit is a factor of ten. Higher therefore signals a low IC50. For `CC[C@@]1(OC(=O)CC[C@@H](NC(=O)[C@H](N)Cc2c[nH]c3ccccc23)C(=O)O)C(=O)OCc2c1cc1n(c2=O)Cc2cc3ccccc3nc2-1` [Example 31, 20-O—[(R)-tryptophyl-γ-(R)-glutamyl]-20(S)-camptothecin hydrochloride], the negative-log IC50 (pIC50) in series [3] is 4.74. Besides, in series [1] (setting [4]), the IC50 was 3 nM.
Regarding `C=C1C(n2ccc(NC(=O)CC[C@@H](NC(=O)[C@@H](N)Cc3ccc4ccccc4c3)C(=O)O)nc2=O)O[C@H](CO)[C@H]1O` (stereo partly drawn) [Example 17, (2R)-((2S)-Amino-3-naphthalen-2-ylpropionylamino)-4-[1-((4S)-hydroxy-(5R)-hydroxymethyl-3-methylenetetrahydrofuran-2-yl)-2-oxo-1,2-dihydropyrimidin-4-ylcarbamoyl]butyric acid], the figures for the pIC50 in series [3], in series [1] and in series [2] were 8.96, 9.00 and 10.01, respectively.
